The text below walks through data of ChEMBL document CHEMBL1151958, “Improving metabolic stability by glycosylation: bifunctional peptide derivatives that are opioid receptor agonists and neurokinin 1 receptor antagonists” (J Med Chem, 2009).

pIC50: −log10 of the molar value. A value given as a limit tells only on which side of the number the result lay.

The target in one data set is Mu-type opioid receptor (Rattus norvegicus, UniProt P33535). Put plainly: Displacement of [3H]DAMGO from rat mu opioid receptor expressed in mouse HN9.10 cell membrane. The data set is classed as cell membranes. A general note: Loss of bound radioactivity is the signal in a displacement assay; it reports binding, not function.
Sequence of Mu-type opioid receptor (P33535 whole entry): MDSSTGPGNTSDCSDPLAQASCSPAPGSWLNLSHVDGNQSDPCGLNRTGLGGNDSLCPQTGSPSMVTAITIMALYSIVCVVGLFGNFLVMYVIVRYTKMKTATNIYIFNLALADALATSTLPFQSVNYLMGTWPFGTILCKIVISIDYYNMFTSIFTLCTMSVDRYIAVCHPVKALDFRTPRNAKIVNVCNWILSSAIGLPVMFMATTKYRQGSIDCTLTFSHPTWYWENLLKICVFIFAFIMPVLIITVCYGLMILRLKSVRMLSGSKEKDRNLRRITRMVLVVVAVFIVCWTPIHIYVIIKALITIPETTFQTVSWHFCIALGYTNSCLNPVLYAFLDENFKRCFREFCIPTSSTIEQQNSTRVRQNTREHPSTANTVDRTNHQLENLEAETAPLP
The target in data set [1] is Substance-P receptor (Homo sapiens, UniProt P25103). Put plainly: Displacement of [3H]substance P from human NK1 receptor expressed in CHO cell membrane. The data set is classed as cell membranes.
Sequence of Substance-P receptor (Homo sapiens, UniProt P25103) (P25103 whole entry): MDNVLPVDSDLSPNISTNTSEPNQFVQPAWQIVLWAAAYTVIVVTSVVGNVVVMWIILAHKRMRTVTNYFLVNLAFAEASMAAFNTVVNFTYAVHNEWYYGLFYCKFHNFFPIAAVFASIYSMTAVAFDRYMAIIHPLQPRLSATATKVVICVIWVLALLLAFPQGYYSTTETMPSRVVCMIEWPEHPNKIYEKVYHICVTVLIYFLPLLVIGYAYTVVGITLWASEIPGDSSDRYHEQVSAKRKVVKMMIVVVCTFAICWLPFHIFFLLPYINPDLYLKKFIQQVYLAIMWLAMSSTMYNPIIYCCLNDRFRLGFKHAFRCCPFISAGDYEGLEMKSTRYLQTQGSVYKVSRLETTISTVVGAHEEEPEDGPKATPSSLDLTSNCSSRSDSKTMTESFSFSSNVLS
Data set [2] deals with Delta-type opioid receptor (Homo sapiens, UniProt P41143). Put plainly: Displacement of [3H]DPDPE from human delta opioid receptor expressed in mouse HN9.10 cell membrane. The data set is classed as cell membranes.
Sequence of Delta-type opioid receptor (P41143 whole entry): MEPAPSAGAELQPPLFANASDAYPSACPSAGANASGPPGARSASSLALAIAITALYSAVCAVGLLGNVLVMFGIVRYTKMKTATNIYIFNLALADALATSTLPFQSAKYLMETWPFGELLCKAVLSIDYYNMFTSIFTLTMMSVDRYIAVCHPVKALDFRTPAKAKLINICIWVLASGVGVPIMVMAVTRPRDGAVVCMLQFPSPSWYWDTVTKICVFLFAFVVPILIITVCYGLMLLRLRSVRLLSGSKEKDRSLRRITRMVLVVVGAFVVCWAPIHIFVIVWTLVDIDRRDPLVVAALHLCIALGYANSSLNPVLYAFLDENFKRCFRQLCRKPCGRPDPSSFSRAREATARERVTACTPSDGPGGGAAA
Data set [3] in a line: Metabolic stability in rat plasma assessed as half life at 37 degC. The data set is classed as ADME, cell-free.
The target of data set [4] is Substance-P receptor (Rattus norvegicus, UniProt P14600). Nature of the data set: Displacement of [3H]substance P from rat NK1 receptor expressed in CHO cell membrane. The data set is classed as cell membranes.
Sequence of Substance-P receptor (Rattus norvegicus, UniProt P14600) (P14600 whole entry): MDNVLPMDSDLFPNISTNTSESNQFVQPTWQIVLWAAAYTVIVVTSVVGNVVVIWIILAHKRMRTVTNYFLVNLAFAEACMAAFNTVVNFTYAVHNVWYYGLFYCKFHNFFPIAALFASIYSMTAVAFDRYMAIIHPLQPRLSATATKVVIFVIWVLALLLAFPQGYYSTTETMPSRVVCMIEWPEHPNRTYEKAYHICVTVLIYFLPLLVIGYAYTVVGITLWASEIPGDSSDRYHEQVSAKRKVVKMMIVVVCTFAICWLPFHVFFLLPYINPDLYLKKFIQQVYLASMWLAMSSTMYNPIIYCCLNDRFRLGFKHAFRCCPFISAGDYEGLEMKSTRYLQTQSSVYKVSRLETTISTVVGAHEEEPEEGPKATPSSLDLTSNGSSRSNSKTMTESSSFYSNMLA

A word on the pIC50: it is −log10 of the IC50, conventionally taken in molar units. A higher pIC50 goes with a small IC50. In the case of `CCCC[C@H](NC(=O)[C@H](Cc1ccccc1)NC(=O)CNC(=O)[C@@H](C)NC(=O)[C@@H](N)Cc1ccc(O)cc1)C(=O)N[C@@H](CO[C@@H]1O[C@H](CO)[C@@H](O)[C@H](O)[C@H]1O)C(=O)N[C@@H](CC(C)C)C(=O)N[C@@H](Cc1c[nH]c2ccccc12)C(=O)NCc1cc(C(F)(F)F)cc(C(F)(F)F)c1`, the results for the negative-log IC50 (pIC50) at Mu-type opioid receptor and on Substance-P receptor [1] were 5.15 and 8.38, respectively.
In general, half-life refers to the time needed for the level to fall by half in the phase considered. Consider `CCCC[C@H](NC(=O)[C@H](Cc1ccccc1)NC(=O)CNC(=O)[C@@H](C)NC(=O)[C@@H](N)Cc1ccc(O)cc1)C(=O)N1CCC[C@H]1C(=O)N[C@@H](CO[C@@H]1O[C@H](CO)[C@@H](O)[C@H](O)[C@H]1O)C(=O)N[C@@H](Cc1c[nH]c2ccccc12)C(=O)NCc1cc(C(F)(F)F)cc(C(F)(F)F)c1`, for which the negative logarithm of the IC50 (pIC50) in data set [2] was 8.10; on Mu-type opioid receptor, 7.77; on Substance-P receptor [4] it was 7.30. The half-life in data set [3] was above 6 h.
Turning to `CC(C)C[C@H](NC(=O)[C@@H]1CCCN1C(=O)[C@H](CO[C@@H]1O[C@H](CO)[C@@H](O)[C@H](O)[C@H]1O)NC(=O)[C@H](Cc1ccccc1)NC(=O)CNC(=O)[C@@H](C)NC(=O)[C@@H](N)Cc1ccc(O)cc1)C(=O)N[C@@H](Cc1c[nH]c2ccccc12)C(=O)NCc1cc(C(F)(F)F)cc(C(F)(F)F)c1`, the pIC50 is 6.91 in data set [2], 6.12 at Mu-type opioid receptor, 8.35 on Substance-P receptor [4] and 12.21 on Substance-P receptor [1].
Regarding `CCCC[C@H](NC(=O)[C@H](Cc1ccccc1)NC(=O)CNC(=O)[C@@H](C)NC(=O)[C@@H](N)Cc1ccc(O)cc1)C(=O)N1CCC[C@H]1C(=O)N[C@@H](CC(C)C)C(=O)N[C@@H](Cc1c[nH]c2ccccc12)C(=O)NCc1cc(C(F)(F)F)cc(C(F)(F)F)c1`, the negative logarithm of the IC50 (pIC50) in data set [2] is 8.67; at Substance-P receptor [1], 11.57. Moreover, in data set [3], the half-life is above 6 h.
